Values after ≈ are worked out from the molar mass of the structure shown.
Key:
[1] = 'as known'; cited from earlier work
[2] = Aqueous solubility of quercetin without and with sulfated beta-cyclodextrin (UV absorbance at 375 nm); type: physicochemical; conditions: aqueous sulfated beta-cyclodextrin solution, aqueous with cosolvent or surfactant or cyclodextrin
Source text: FIG. 8 depicts a graph of sulfated beta-cyclodextrin formed 1:1 complex with antioxidant quercetin, showing quercetin can be encapsulated in the gel. […] In the presence of sulfated beta-cyclodextrin, the absorbance increased. The sulfated beta-cyclodextrin can form 1:1 complex with quercetin through host-guest chemistry. […] Embedment of quercetin in hydrogel and its release: The sulfated beta-cyclodextrin in the crosslinked polymer hydrogel allows drug molecules, even hydrophobic compounds, to incorporate into it through host-guest interaction. An encapsulated-quercetin hydrogel film was prepared (FIG. 8). […] The high equilibrium binding constant of the sulfated β-cyclodextrin/quercetin complex (Kf=2.53×10^4 M^−1 at 25° C.) permits encapsulation of high concentration of quercetin in gel. The fabrication of the quercetin hydrogel is similar to that mentioned above, except for alternative sulfated beta-cyclodextrin with 1:1 sulfated beta-cyclodextrin/quercetin complex. The resultant hydrogel attained similar high fracture toughness and stretching ability in the presence of quercetin (FIG. 9).

solubility ([2]; in 1 mM sulfated beta-cyclodextrin): 42 µM (≈ 12.7 µg/mL)
solubility ([2]; in 2 mM sulfated beta-cyclodextrin): 73 µM (≈ 22.1 µg/mL)
SMILES: O=c1c(O)c(-c2ccc(O)c(O)c2)oc2cc(O)cc(O)c12 [quercetin]
solubility in water [1]: ~1.3 µM (≈ 0.393 µg/mL)
